Data published in patent US20110104780A1, “ENCAPSULATION OF LIVING CELLS WITHIN AN AEROSOLIZED SOL-GEL MATRIX” (PURDUE RESEARCH FOUNDATION, priority 2008, published 2011).

Test system: cells coated with sol-gel vapor
Assay: Proton efflux at the cellular surface, self referencing electrode
Type: cell-based
Conditions: 48 hours after coating cells with sol-gel vapor
Description: Data relating to oxygen influx and proton efflux were collected using a self referencing electrode apparatus.
Proton efflux is the result of a variety of cellular properties including metabolism.

Compound	proton efflux after addition of metabolic disrupter
[N-]=[N+]=[N-].[Na+] [NaN3]	decreasing efflux
CC[C@H]1/C=C/C=C/C[C@@H](C)[C@H](O)[C@@](C)(O)C(=O)[C@@H](C)[C@H](O)[C@@H](C)C(=O)[C@@H](C)[C@H](O)[C@@H](C)/C=C/C(=O)O[C@@H]2[C@H](C)[C@H](CC1)O[C@]1(CC[C@H](C)[C@H](C[C@@H](C)O)O1)[C@H]2C [oligomycin]	decreasing efflux
antimycin A	increasing efflux
